Results: article PMC4287437, “Novel Inhibitors Induce Large Conformational Changes of GAB1 Pleckstrin Homology Domain and Kill Breast Cancer Cells” (PLoS Computational Biology, 2015)
Values joined by “and” are separate entries in the source; they are usually repeats but may differ in a detail not shown here. Equal values may be shown once.

Legend:
phospho-Tyr627 GAB1 = assay: Inhibition of GAB1 Y627 phosphorylation in T47D cells; assay type: cell-based, human; conditions: 20 µM, 4 hr, HGF stimulated
Protocol: For all biological assays, hit compounds were added at 20 µM concentration directly into the culture media of the cells for 4 hr following a 16 hr incubation of T47D cells without FBS. Cells were stimulated with HGF for 20 min at 50 ng/ml. Following this treatment, cells were lysed as previously published and equal amounts of total cell lysate were loaded on a pSer^312-IRS-1/Total IRS-1 Meso Scale Discovery plate as described by the manufacturer. The plate was read using a Sector Imager 2400A instrument (Meso Scale Discovery protein profiling system, Gaithersburg, MD). For the measurement of GAB1 phosphorylation, T47D cells were treated as for the phosphorylation of IRS1 evaluation. […] Each experiment was performed at least three times.

MDA-MB-231 = assay: Cellular proliferation (MTT) assay, MDA-MB-231; assay type: cell-based, human; conditions: for IC50: 4 days growth, MTT, IA = Inactive; for toxicity to MDA-MB-231 at 100 µM: data not shown
Protocol: (§1) T47D and MDA-MB-231 cells were maintained in bulk culture in Dulbecco's modified Eagle medium (DMEM) supplemented with 10% heat-inactivated fetal bovine serum (FBS), 4.5 g/L glucose, 100 U/mL penicillin and […] streptomycin in a 5% CO2 atmosphere. MCF-10A cells were maintained in MEGM with other conditions same as the cancer cell lines. […] Cells were confirmed to be mycoplasma free by testing them with an ELISA kit (Roche-Boehringer Mannheim, Indianapolis, IN). Our hit compounds were freshly prepared in DMSO at a stock concentration of 10 mM. For the evaluation of cellular proliferation, a standard 96-well micro-cytotoxicity assay was performed as described in reference. Briefly, the assay was set up by plating cells at 5,000–10,000 cells per well (depending on cell doubling time) for a growth period of 4 days. The identified hits were added directly to the media, dissolved in DMSO at various concentrations ranging from 1 to 200 µM. The endpoint was spectrophotometric determination of the reduction of 3-(4,5-dimethylthiazol-2-yl)-2,5-diphenyltetrazolium bromide. All assays were performed in triplicates.

T47D = assay: Cellular proliferation (MTT) assay, T47D; assay type: cell-based, human; conditions: for IC50: 4 days growth, MTT, IA = Inactive; for toxicity to T47D at 100 µM: data not shown
Protocol: as §1

human GAB1 PH domain [1] = target: T1, human GAB1 PH domain (Homo sapiens, UniProt Q13480); assay: SPR direct binding to GAB1 PH domain; conditions: for Kd: read-out: KD GAB1; for Kd / KD GAB1: SPR, immobilized PH domain GST-fusion, NB = No Binding; for Exp. ΔGbind: GAB1, derived from experimental KD (or Ki)
T1 sequence (Q13480 5-116 limits assumed): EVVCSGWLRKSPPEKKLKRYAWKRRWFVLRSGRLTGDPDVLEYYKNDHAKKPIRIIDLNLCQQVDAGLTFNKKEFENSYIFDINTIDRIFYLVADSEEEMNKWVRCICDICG
Protocol: (§3) Binding assays were performed using a Biacore 2000 instrument with the Biacore Control Software v3.2 and BIAevaluation v4.1 analysis software (Biacore, Piscataway, NJ) as previously described [51]. Briefly, the PH domain GST-fusion proteins were immobilized on a CM5 Sensorchip (Biacore BR-1000-12) using Biacore's Amine Coupling Kit (Biacore BR-1000-50) to a level of 10,000 Response units (RUs). Small molecule analytes at concentrations ranging from one tenth to ten times the predicted K D were injected at a high flow rate (30 µL/min). Dimethylsulfoxide (DMSO) concentrations in all samples and running buffer were 1% (v/v) or less. For the competitive binding assays and K i determination, PtdIns(3,4,5)P3-biotin labeled liposomes (Echelon Biosciences, Salt Lake City, UT) and SA chips were used with increasing concentrations of the compound tested. We did triplicate SPR assays for each concentration.

human IRS1 PH domain = target: T2, human IRS1 PH domain (Homo sapiens, UniProt P35568); assay: SPR direct binding to IRS1 PH domain; conditions: for Kd: read-out: KD IRS1; for Exp. ΔGbind: IRS1, derived from experimental KD
T2 sequence (P35568 12-115 limits assumed): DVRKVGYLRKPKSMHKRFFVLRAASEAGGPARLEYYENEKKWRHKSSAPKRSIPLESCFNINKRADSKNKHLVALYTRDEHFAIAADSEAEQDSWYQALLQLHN
Protocol: as §3

MCF-10A = assay: Cellular proliferation assay, MCF-10A non-tumorigenic cells; assay type: cell-based, human; conditions: data not shown
Protocol: (§2) Two human breast cancer cell lines and one normal breast cell line were used for this study: T47D ductal breast epithelial tumor cell line, MDA-MB-231 epithelial tumor cell line and MCF-10A non-tumorigenic epithelial cell line (American Type Culture Collection, Rockville, MD). T47D and MDA-MB-231 cells were maintained in bulk culture in Dulbecco's modified Eagle medium (DMEM) supplemented with 10% heat-inactivated fetal bovine serum (FBS), 4.5 g/L glucose, 100 U/mL penicillin and […] streptomycin in a 5% CO2 atmosphere. MCF-10A cells were maintained in MEGM with other conditions same as the cancer cell lines. Cells were passaged using 0.25% trypsin and 0.02% EDTA. Cells were confirmed to be mycoplasma free by testing them with an ELISA kit (Roche-Boehringer Mannheim, Indianapolis, IN). Our hit compounds were freshly prepared in DMSO at a stock concentration of 10 mM. For the evaluation of cellular proliferation, a standard 96-well micro-cytotoxicity assay was performed as described in reference. Briefly, the assay was set up by plating cells at 5,000–10,000 cells per well (depending on cell doubling time) for a growth period of 4 days. The identified hits were added directly to the media, dissolved in DMSO at various concentrations ranging from 1 to 200 µM. […]

MDA-MB-468 cell line = assay: Cellular proliferation assay, MDA-MB-468; assay type: cell-based; conditions: cell marked ** in MDA-MB-231 column: MDA-MB-468 cell line used
Protocol: as §2

human GAB1 PH domain [2] = target: T1, human GAB1 PH domain; assay: SPR competitive binding (PtdIns(3,4,5)P3-biotin liposomes), Ki, GAB1 PH domain; conditions: read-out: Ki GAB1, cells marked * (Ki measurement)
Protocol: as §3

GAB2 PH domain = GAB2 PH domain (Homo sapiens, UniProt Q9UQC2); assay: Follow-up binding to GAB2 PH domain; conditions: follow-up experiments
Sequence of GAB2 PH domain (Q9UQC2 6-117 limits assumed): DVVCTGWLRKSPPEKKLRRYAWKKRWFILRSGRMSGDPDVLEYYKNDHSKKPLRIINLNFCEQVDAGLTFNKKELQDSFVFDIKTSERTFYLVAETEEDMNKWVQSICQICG

[3] = SPR, immobilized PH domain GST-fusion, NB = No Binding

| SMILES | IC50 (MDA-MB-231) [µM] | IC50 (T47D) [µM] | Kd (human GAB1 PH domain [1]) [µM] | Kd (human IRS1 PH domain; [3]) [µM] | % pGAB1 inhibition (phospho-Tyr627 GAB1) [%] | further results |
| --- | --- | --- | --- | --- | --- | --- |
| O=S(=O)(NCc1csc(-c2cccs2)n1)c1ccc(N2CCOCC2)nc1 [GAB-008] | > 200 | 43.2 ± 3.2 | > 50 | 16.2 ± 1.7 | 8 | – |
| Cc1nnc(NS(=O)(=O)c2ccc(NS(=O)(=O)c3ccc4ccccc4c3)cc2)s1 [GAB-014] | – | 178 ± 3.9 | > 50 | > 50 | 42 | IC50 (MDA-MB-468 cell line): 69.9 ± 0.1 µM |
| O=c1[nH]nc(SCc2csc(-c3ccccc3)n2)n1Cc1ccco1 [GAB-004] | 66.6 ± 4.6 | 19.4 ± 2.9 | 2.2 ± 1.1 | > 50 | 81 | Exp. ΔGbind (human GAB1 PH domain [1]): -7.78 kcal/mol |
| Cc1cc2ncc(-c3cnc(SCCS(=O)(=O)c4ccc(Cl)cc4)nc3)c(C)n2n1 [GAB-006] | – | 101 ± 1.8 | > 50 | > 50 | 16 | – |
| CCCCCCCCCCCCc1ccc(S(=O)(=O)Nc2nnc(S(N)(=O)=O)s2)cc1 [GAB-018] | – | 185 ± 2.5 | – | > 50 | 71 | killing of MDA-MB-231 cells at 50 µM (MDA-MB-231): did not effectively kill; killing of T47D cells at 50 µM (T47D): did not effectively kill; Ki (human GAB1 PH domain [2]): 36.6 ± 5 µM |
| Cn1cnc(S(=O)(=O)Nc2ccccc2SCCS(=O)(=O)c2ccc(Cl)cc2)c1 [GAB-002] | 143 ± 11.6 | 138 ± 6.9 | 2.1 ± 0.1 | 16.4 ± 4.3 | 32 | – |
| CCCCCCCCCCCCc1ccc(S(=O)(=O)Nc2nncs2)cc1 [GAB-020] | – | – | 1.33 | – | 87 | – |
| CS(=O)(=O)CCSc1ncccc1C(=O)Sc1ccc(Cl)cc1Cl [GAB-007] | 4.6 ± 0.7 | 20.1 ± 4.3 | 42.3 ± 8.9 | 1.6 ± 0.2 | 53 | Exp. ΔGbind (human GAB1 PH domain [1]): -6.01 kcal/mol; Exp. ΔGbind (human IRS1 PH domain): -7.93 kcal/mol |
| CCCCCCCCCCCCCCCCCCOC[C@H](COP(=O)(O)OC1C(O)[C@@H](O)C(O)C[C@H]1O)OC (stereo partly shown) [DPIEL, reference compound] | – | – | 2.8 | – | 72 | – |

Now from value to compound, other results behind:

| IC50 (MDA-MB-231) [µM] | IC50 (T47D) [µM] | Kd (human GAB1 PH domain [1]) [µM] | Kd (human IRS1 PH domain; [3]) [µM] | SMILES | % pGAB1 inhibition (phospho-Tyr627 GAB1) [%] | further results |
| --- | --- | --- | --- | --- | --- | --- |
| 163 ± 6 | 97.6 ± 6.1 | > 50 | > 50 | Cc1noc(C)c1NC(=O)NCc1csc(-c2cccs2)n1 [GAB-009] | 38 | – |
| > 200 | > 200 | > 50 | > 50 | CS(=O)(=NS(=O)(=O)c1ccc(-c2ccccn2)s1)c1ccc(Cl)cc1 (stereo not shown) [GAB-005] | 6 | – |
| 66 ± 4.4 | 23.8 ± 4.2 | > 50 | 0.12 ± 0.02 | Cc1onc(-c2ccccc2)c1-c1nc(CSc2nc3ccccc3[nH]2)no1 [GAB-010] | 92 | Exp. ΔGbind (human IRS1 PH domain): -9.51 kcal/mol |
| > 200 | 119 ± 3.6 | > 50 | > 50 | O=C(O)c1ccccc1C(=O)Nc1ccccc1SCCS(=O)(=O)c1ccc(Cl)cc1 [GAB-012] | 43 | killing of MDA-MB-231 cells at 50 µM (MDA-MB-231): did not effectively kill; toxicity to MDA-MB-231 at 100 µM (MDA-MB-231): not for T47D and MDA-MB-231; killing of T47D cells at 50 µM (T47D): did not effectively kill; toxicity to T47D at 100 µM (T47D): not for T47D and MDA-MB-231; toxicity to MCF-10A at 100 µM (MCF-10A): toxic |
| – | 39.4 ± 6.2 | – | – | CCc1ccc(C(=O)OC)cc1CSc1nnc(-c2ccc(C(F)(F)F)cc2)n1Cc1ccoc1 [GAB-019] | 91 | – |
| > 200 | > 200 | > 50 | > 50 | COc1cc(NS(=O)(=O)c2ccc(NS(=O)(=O)c3c(C)noc3C)cc2)nc(OC)n1 [GAB-013] | 27 | killing of MDA-MB-231 cells at 50 µM (MDA-MB-231): did not effectively kill; toxicity to MDA-MB-231 at 100 µM (MDA-MB-231): not for T47D and MDA-MB-231; killing of T47D cells at 50 µM (T47D): did not effectively kill; toxicity to T47D at 100 µM (T47D): not for T47D and MDA-MB-231; toxicity to MCF-10A at 100 µM (MCF-10A): toxic |
| – | 125 ± 5.4 | – | 0.05 | CCCCCCCCCCCCc1ccc(S(=O)(=O)Nc2nnc(CC(=O)O)s2)cc1 [GAB-015] | 77 | Ki (human GAB1 PH domain [2]): 13.1 ± 1.5 µM |
| – | – | 0.68 ± 0.03 | 0.05 | CCCCCCCCCCCCc1ccc(S(=O)(=O)Nc2nnc(C(=O)OCC)s2)cc1 [GAB-017] | – | Exp. ΔGbind (human GAB1 PH domain [1]): -8.47 kcal/mol; KD GAB1 (human GAB1 PH domain [1]): nanomolar binding affinity |
| – | – | 0.9 ± 0.1 | 0.15 | CCCCCCCCCCCCc1ccc(S(=O)(=O)Nc2nnc(CC(=O)OCC)s2)cc1 [GAB-016] | – | targeting of GAB2 PH domain (GAB2 PH domain): targets GAB2 PH domain as well; Exp. ΔGbind (human GAB1 PH domain [1]): -8.31 kcal/mol; KD GAB1 (human GAB1 PH domain [1]): nanomolar binding affinity; Exp. ΔGbind (human IRS1 PH domain): -9.38 kcal/mol |
| > 200 | > 200 | > 50 | > 50 | Cn1c(Cc2ccsc2)nnc1SCC(=O)Nc1cc(Cl)cc(Cl)c1 [GAB-011] | 24 | – |
| 40.3 ± 1.3 | 23.7 ± 2.7 | – | > 50 | O=S(=O)(NCc1csc2ccc(Cl)cc12)c1cc(S(=O)(=O)c2ccccc2)cs1 [GAB-001] | 55 | Exp. ΔGbind (human GAB1 PH domain [1]): -6.91 kcal/mol; KD IRS1 (human IRS1 PH domain; [3]): not to IRS1 PH domain; Ki (human GAB1 PH domain [2]): 9.4 µM and 9.38 µM |
